Measurements published in PubChem BioAssay (NCI).
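Five concentrations, 48 hours, 96-well plates. GI50: concentration for 50% inhibition of growth. TGI denotes the concentration required for complete inhibition of growth.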

Columns and labels:
Experiment in all cases: inhibition of tumour cell growth, NCI panel, 48 h
SK-MEL-28 melanoma = tested on: SK-MEL-28 melanoma
K-562 leukemia = tested on: K-562 leukemia
SF-539 CNS = tested on: SF-539 CNS
TK-10 renal = tested on: TK-10 renal
OVCAR-5 ovarian = tested on: OVCAR-5 ovarian
SN12C renal = tested on: SN12C renal
UACC-257 melanoma = tested on: UACC-257 melanoma
ACHN renal = tested on: ACHN renal
A498 renal = tested on: A498 renal
SF-295 CNS = tested on: SF-295 CNS
SNB-75 CNS = tested on: SNB-75 CNS
HT29 colon = tested on: HT29 colon
UACC-62 melanoma = tested on: UACC-62 melanoma
RPMI-8226 leukemia = tested on: RPMI-8226 leukemia
MDA-MB-435 = tested on: MDA-MB-435
HCC-2998 colon = tested on: HCC-2998 colon
NCI/ADR-RES ovarian = tested on: NCI/ADR-RES ovarian
COLO 205 colon = tested on: COLO 205 colon
UO-31 renal = tested on: UO-31 renal
RXF 393 renal = tested on: RXF 393 renal
NCI-H226 lung = tested on: NCI-H226 lung
SK-MEL-5 melanoma = tested on: SK-MEL-5 melanoma
MALME-3M melanoma = tested on: MALME-3M melanoma
KM12 colon = tested on: KM12 colon
HCT-15 colon = tested on: HCT-15 colon
OVCAR-4 ovarian = tested on: OVCAR-4 ovarian
SK-MEL-2 melanoma = tested on: SK-MEL-2 melanoma
HS 578T breast = tested on: HS 578T breast
CAKI-1 renal = tested on: CAKI-1 renal
SK-OV-3 ovarian = tested on: SK-OV-3 ovarian
CCRF-CEM leukemia = tested on: CCRF-CEM leukemia
MDA-MB-231 breast = tested on: MDA-MB-231 breast
DU-145 prostate = tested on: DU-145 prostate
T-47D breast = tested on: T-47D breast
SR leukemia = tested on: SR leukemia
PC-3 prostate = tested on: PC-3 prostate
HL-60(TB) leukemia = tested on: HL-60(TB) leukemia
IGROV1 ovarian = tested on: IGROV1 ovarian
NCI-H460 lung = tested on: NCI-H460 lung
HOP-92 NSCLC = tested on: HOP-92 NSCLC
SNB-19 CNS = tested on: SNB-19 CNS
A549 NSCLC = tested on: A549 NSCLC
SW-620 colon = tested on: SW-620 colon
HOP-62 NSCLC = tested on: HOP-62 NSCLC
HCT-116 colon = tested on: HCT-116 colon
M14 melanoma = tested on: M14 melanoma
SF-268 CNS = tested on: SF-268 CNS
OVCAR-8 ovarian = tested on: OVCAR-8 ovarian
BT-549 breast = tested on: BT-549 breast
786-0 renal = tested on: 786-0 renal
EKVX NSCLC = tested on: EKVX NSCLC
LOX IMVI melanoma = tested on: LOX IMVI melanoma
NCI-H23 lung = tested on: NCI-H23 lung
NCI-H522 lung = tested on: NCI-H522 lung
MOLT-4 leukemia = tested on: MOLT-4 leukemia
U251 CNS = tested on: U251 CNS

`Nc1cc(-c2c[nH]c3ccc(Br)cc23)nc2cc(-c3c[nH]c4ccc(Br)cc34)nn12` was tested, and the GI50 (SK-MEL-28 melanoma) was 1620 nM, the TGI (SK-MEL-28 melanoma) was 3080 nM and the GI50 (K-562 leukemia) was 2810 nM. The TGI (K-562 leukemia) was over 100000 nM, the GI50 (SF-539 CNS) was 1460 nM and the TGI (SF-539 CNS) was 2920 nM. It also gave a GI50 (TK-10 renal) of 1800 nM, a TGI (TK-10 renal) of 3390 nM and a GI50 (OVCAR-5 ovarian) of 1530 nM. For the same compound, the TGI (OVCAR-5 ovarian) was 3110 nM, the GI50 (SN12C renal) was 1840 nM and the TGI (SN12C renal) was 3640 nM. It also gave a GI50 (UACC-257 melanoma) of 1630 nM, a TGI (UACC-257 melanoma) of 3200 nM and a GI50 (ACHN renal) of 1560 nM. The TGI (ACHN renal) was 2960 nM, the GI50 (A498 renal) was 1570 nM and the TGI (A498 renal) was 4070 nM. It also gave a GI50 (SF-295 CNS) of 1890 nM, a TGI (SF-295 CNS) of 3570 nM and a GI50 (SNB-75 CNS) of 1170 nM. For the same compound, the TGI (SNB-75 CNS) was 3770 nM, the GI50 (HT29 colon) was 1710 nM and the TGI (HT29 colon) was 3150 nM. The GI50 (UACC-62 melanoma) was 1480 nM, the TGI (UACC-62 melanoma) was 3050 nM and the GI50 (RPMI-8226 leukemia) was 3170 nM. The TGI (RPMI-8226 leukemia) was over 100000 nM, the GI50 (MDA-MB-435) was 1710 nM and the TGI (MDA-MB-435) was 3250 nM. For the same compound, the GI50 (HCC-2998 colon) was 1800 nM, the TGI (HCC-2998 colon) was 3340 nM and the GI50 (NCI/ADR-RES ovarian) was 2500 nM. The TGI (NCI/ADR-RES ovarian) was 6140 nM, the GI50 (COLO 205 colon) was 1760 nM and the TGI (COLO 205 colon) was 3230 nM. It also gave a GI50 (UO-31 renal) of 1470 nM, a TGI (UO-31 renal) of 2790 nM and a GI50 (RXF 393 renal) of 1830 nM. It also gave a TGI (RXF 393 renal) of 3540 nM, a GI50 (NCI-H226 lung) of 2140 nM and a TGI (NCI-H226 lung) of 6110 nM. The GI50 (SK-MEL-5 melanoma) was 1700 nM, the TGI (SK-MEL-5 melanoma) was 3180 nM and the GI50 (MALME-3M melanoma) was 1930 nM. For the same compound, the TGI (MALME-3M melanoma) was 4080 nM, the GI50 (KM12 colon) was 1480 nM and the TGI (KM12 colon) was 2960 nM. For the same compound, the GI50 (HCT-15 colon) was 1360 nM, the TGI (HCT-15 colon) was 3180 nM and the GI50 (OVCAR-4 ovarian) was 2030 nM. It also gave a TGI (OVCAR-4 ovarian) of 5250 nM, a GI50 (SK-MEL-2 melanoma) of 1670 nM and a TGI (SK-MEL-2 melanoma) of 3270 nM. The GI50 (HS 578T breast) was 2300 nM, the TGI (HS 578T breast) was 7540 nM and the GI50 (CAKI-1 renal) was 1430 nM. It also gave a TGI (CAKI-1 renal) of 3150 nM, a GI50 (SK-OV-3 ovarian) of 1710 nM and a TGI (SK-OV-3 ovarian) of 3440 nM. For the same compound, the GI50 (CCRF-CEM leukemia) was 3210 nM, the TGI (CCRF-CEM leukemia) was over 100000 nM and the GI50 (MDA-MB-231 breast) was 1890 nM. The TGI (MDA-MB-231 breast) was 3790 nM, the GI50 (DU-145 prostate) was 1720 nM and the TGI (DU-145 prostate) was 3230 nM.

`CCOc1ccccc1NC1=C(Cl)C(=O)c2nc(C)ccc2C1=O` gave a GI50 (T-47D breast) of 467 nM, a TGI (T-47D breast) of 3170 nM and a GI50 (SR leukemia) of 543 nM. The TGI (SR leukemia) was 4140 nM, the GI50 (SK-MEL-28 melanoma) was 1710 nM and the TGI (SK-MEL-28 melanoma) was 3140 nM. It also gave a GI50 (PC-3 prostate) of 1260 nM, a TGI (PC-3 prostate) of 2770 nM and a GI50 (SF-539 CNS) of 1670 nM. It also gave a TGI (SF-539 CNS) of 3090 nM, a GI50 (HL-60(TB) leukemia) of 1030 nM and a TGI (HL-60(TB) leukemia) of 2920 nM. It also gave a GI50 (IGROV1 ovarian) of 1370 nM, a TGI (IGROV1 ovarian) of 2820 nM and a GI50 (NCI-H460 lung) of 3020 nM. For the same compound, the TGI (NCI-H460 lung) was 11400 nM, the GI50 (TK-10 renal) was 2250 nM and the TGI (TK-10 renal) was 3720 nM. For the same compound, the GI50 (HOP-92 NSCLC) was 1800 nM, the TGI (HOP-92 NSCLC) was 3330 nM and the GI50 (OVCAR-5 ovarian) was 1840 nM. The TGI (OVCAR-5 ovarian) was 3330 nM, the GI50 (SN12C renal) was 1590 nM and the TGI (SN12C renal) was 3040 nM. The GI50 (SNB-19 CNS) was 1800 nM, the TGI (SNB-19 CNS) was 3970 nM and the GI50 (UACC-257 melanoma) was 1280 nM. The TGI (UACC-257 melanoma) was 2610 nM, the GI50 (ACHN renal) was 1350 nM and the TGI (ACHN renal) was 2690 nM. The GI50 (A549 NSCLC) was 2060 nM, the TGI (A549 NSCLC) was 4650 nM and the GI50 (A498 renal) was 2650 nM. The TGI (A498 renal) was 10800 nM, the GI50 (SF-295 CNS) was 2030 nM and the TGI (SF-295 CNS) was 4200 nM. The GI50 (SNB-75 CNS) was 1630 nM, the TGI (SNB-75 CNS) was 3430 nM and the GI50 (HT29 colon) was 3400 nM. The TGI (HT29 colon) was 15200 nM, the GI50 (UACC-62 melanoma) was 1800 nM and the TGI (UACC-62 melanoma) was 3360 nM. For the same compound, the GI50 (SW-620 colon) was 1600 nM, the TGI (SW-620 colon) was 3210 nM and the GI50 (RPMI-8226 leukemia) was 1200 nM. The TGI (RPMI-8226 leukemia) was 4710 nM, the GI50 (HOP-62 NSCLC) was 2270 nM and the TGI (HOP-62 NSCLC) was 6740 nM. For the same compound, the GI50 (MDA-MB-435) was 266 nM, the TGI (MDA-MB-435) was 671 nM and the GI50 (HCC-2998 colon) was 1940 nM. The TGI (HCC-2998 colon) was 3520 nM, the GI50 (NCI/ADR-RES ovarian) was 1890 nM and the TGI (NCI/ADR-RES ovarian) was 5090 nM. It also gave a GI50 (COLO 205 colon) of 1730 nM, a TGI (COLO 205 colon) of 3660 nM and a GI50 (HCT-116 colon) of 1050 nM. The TGI (HCT-116 colon) was 2310 nM, the GI50 (M14 melanoma) was 1460 nM and the TGI (M14 melanoma) was 2830 nM. The GI50 (UO-31 renal) was 1400 nM, the TGI (UO-31 renal) was 2710 nM and the GI50 (RXF 393 renal) was 1440 nM. It also gave a TGI (RXF 393 renal) of 2780 nM, a GI50 (SF-268 CNS) of 1470 nM and a TGI (SF-268 CNS) of 2940 nM. The GI50 (NCI-H226 lung) was 1780 nM, the TGI (NCI-H226 lung) was 4240 nM and the GI50 (SK-MEL-5 melanoma) was 1740 nM. For the same compound, the TGI (SK-MEL-5 melanoma) was 3130 nM, the GI50 (MALME-3M melanoma) was 1360 nM and the TGI (MALME-3M melanoma) was 2770 nM. For the same compound, the GI50 (OVCAR-8 ovarian) was 1490 nM, the TGI (OVCAR-8 ovarian) was 2920 nM and the GI50 (KM12 colon) was 1410 nM. For the same compound, the TGI (KM12 colon) was 2890 nM, the GI50 (BT-549 breast) was 1520 nM and the TGI (BT-549 breast) was 2880 nM. For the same compound, the GI50 (HCT-15 colon) was 1130 nM, the TGI (HCT-15 colon) was 2550 nM and the GI50 (OVCAR-4 ovarian) was 1000 nM. For the same compound, the TGI (OVCAR-4 ovarian) was 2220 nM, the GI50 (786-0 renal) was 1800 nM and the TGI (786-0 renal) was 3250 nM. For the same compound, the GI50 (EKVX NSCLC) was 1560 nM, the TGI (EKVX NSCLC) was 2980 nM and the GI50 (SK-MEL-2 melanoma) was 1440 nM. For the same compound, the TGI (SK-MEL-2 melanoma) was 2860 nM, the GI50 (HS 578T breast) was 2110 nM and the TGI (HS 578T breast) was 5250 nM. It also gave a GI50 (CAKI-1 renal) of 1450 nM, a TGI (CAKI-1 renal) of 2840 nM and a GI50 (LOX IMVI melanoma) of 839 nM. The TGI (LOX IMVI melanoma) was 2220 nM, the GI50 (NCI-H23 lung) was 1440 nM and the TGI (NCI-H23 lung) was 3550 nM. The GI50 (NCI-H522 lung) was 1740 nM, the TGI (NCI-H522 lung) was 3280 nM and the GI50 (MOLT-4 leukemia) was 2030 nM. It also gave a TGI (MOLT-4 leukemia) of 8090 nM, a GI50 (SK-OV-3 ovarian) of 13500 nM and a TGI (SK-OV-3 ovarian) of 27100 nM. It also gave a GI50 (CCRF-CEM leukemia) of 1410 nM, a TGI (CCRF-CEM leukemia) of over 100000 nM and a GI50 (MDA-MB-231 breast) of 1070 nM. It also gave a TGI (MDA-MB-231 breast) of 2380 nM, a GI50 (DU-145 prostate) of 1630 nM and a TGI (DU-145 prostate) of 2990 nM. The GI50 (U251 CNS) was 1700 nM and the TGI (U251 CNS) was 3270 nM.
